Columns and labels:
[1] = system: MMP1 expression by activated primary synovial fibroblasts; assay: 'MMP assay': MMP1 expression by complex trigger activated synovial fibroblasts (MMP1 ELISA); format: cell-based; conditions: Homo sapiens, Fibroblast; Table 3; RASFs, complex trigger, 48 hrs, MMP1 ELISA
[2] = system: TNFα release by human PBMCs; assay: Cytokine release by LPS stimulated human PBMCs (TNFα ELISA); format: cell-based; conditions: PBMC, 24 h, Table 5, LPS 1 μg/mL
Method: For the assay PBMCs are seeded at 2.5E6 cells/mL in 160 μL in 96-well plates (Nunc). Serial dilution of the test compounds are made first in DMSO (Sigma) and then diluted 50-fold in M199 medium (Gibco) containing 1% heat-inactivated FBS. Compounds are further 1/10 diluted in the assay plates to obtain final DMSO concentration of 0.2%. Cells are preincubated with the compounds for 1 hr at 37° C., 5% CO2. Then, cells are stimulated with LPS (Escherichia coli serotype 026:B6, Cat. No. L2654, Sigma) that is added in a volume of 20 μL to a final concentration of 1 μg/mL and cells are further cultured for 24 hr. The plates are centrifuged and the supernatant is collected and stored at −80° C. until analysis of appropriate dilutions in ELISAs.
After 4 hr incubation at RT, blocking buffer is removed and plates are washed once with PBST (1×PBS with 0.05% Tween-20 (Sigma)). Then, 40 μL of sample is transferred to the ELISA plates and plates are incubated at 4° C. […] After 2 h of incubation at RT, plates are washed as described above and 35 μL/well of a 1/2000 dilution of streptavidin-HRP conjugate (Cat. No. SNN2004, Biosource) in buffer D is added. After 45 min, plates are washed as described above and incubated for 5 min with 50 μL/well BM Chemiluminescence ELISA Substrate POD (Roche). Readout is performed on the Luminoscan Ascent Luminometer (Labsystems) with an integration time of 100 msec delivering raw data (RLU: relative luminescence units). The following controls are included in the experiments, a maximal signal control, in which the cells are activated by LPS but only the 0.2% DMSO vehicle (and thus no compound) is added. […] A minimal signal control is also included in these experiments. Here, cells are not triggered. […] Where compounds are tested at 8 concentrations (1/3 serial dilution), EC50-values can be calculated by curve fitting of the means of the PIN data achieved for a compound at each test concentration.

MAPKAPK5 = target: T1, MAPKAPK5 (Homo sapiens, UniProt Q8IW41); assay: MAPKAP-K5 assay (FlashPlate kinase assay)
T1 sequence (Q8IW41 1-471 isoform Q8IW41-2): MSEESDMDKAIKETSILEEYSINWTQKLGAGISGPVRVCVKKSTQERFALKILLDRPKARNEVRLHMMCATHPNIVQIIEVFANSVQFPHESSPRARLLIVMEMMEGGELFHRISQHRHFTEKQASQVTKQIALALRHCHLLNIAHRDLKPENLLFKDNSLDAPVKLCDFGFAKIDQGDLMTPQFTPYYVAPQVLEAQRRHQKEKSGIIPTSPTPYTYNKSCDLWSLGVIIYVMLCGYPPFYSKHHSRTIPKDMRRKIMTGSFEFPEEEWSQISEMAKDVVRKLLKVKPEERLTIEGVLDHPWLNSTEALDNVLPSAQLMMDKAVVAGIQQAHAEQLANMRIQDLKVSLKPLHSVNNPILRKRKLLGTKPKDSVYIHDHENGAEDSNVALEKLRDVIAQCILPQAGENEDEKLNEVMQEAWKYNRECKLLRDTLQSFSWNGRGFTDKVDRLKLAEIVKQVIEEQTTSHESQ

| Structure (SMILES) | EC50 [1] [nM] | EC50 [2] [nM] | IC50 (MAPKAPK5) [nM] |
| --- | --- | --- | --- |
| CC(C)N1CCN(c2ccc(Nc3ncc(-c4ccc5c(c4)CNC5=O)n4ncnc34)cc2)CC1 [Compound 36, 5-(8-(4-(4-Isopropylpiperazin-1-yl)phenylamino)-[1,2,4]triazolo[1,5-a]pyrazin-5-yl)isoindolin-1-one] | 101 to 500 | > 1000 | 1 to 100 |
| OCc1cc(Nc2ncc(-c3cn[nH]c3)n3ncnc23)ccc1N1CCOCC1 [Compound 37, {5-[5-(1H-Pyrazol-4-yl)-[1,2,4]triazolo[1,5-a]pyrazin-8-ylamino]-2-morpholinophenyl}methanol] | 501 to 1000 | > 1000 | > 1000 |
| CC(C)N1CCN(c2ccc(Nc3ncc(-c4cn[nH]c4)n4ncnc34)cc2)CC1 [Compound 38] | > 1000 | > 1000 | 501 to 1000 |
| O=C1CCc2cc(-c3cnc(Nc4ccc(N5CCOCC5)cc4)c4ncnn34)ccc2N1 [Compound 39] | > 1000 | > 1000 | > 1000 |
| c1nc2c(Nc3ccc(N4CCNCC4)cc3)ncc(-c3cn[nH]c3)n2n1 [Compound 40] | > 1000 | 501 to 1000 | 501 to 1000 |
| c1nc2c(Nc3ccc(N4CCOCC4)nc3)ncc(-c3cn[nH]c3)n2n1 [Compound 41, (6-[Morpholin-4-yl]pyridin-3-yl)-[5-(1H-pyrazol-4-yl)-[1,2,4]triazolo[1,5-a]pyrazin-8-yl]amine] | > 1000 | > 1000 | > 1000 |
| c1nc2c(Nc3ccc(N4CCN(CC5CC5)CC4)nc3)ncc(-c3cn[nH]c3)n2n1 [Compound 42, [6-(4-[Cyclopropylmethyl]piperazin-1-yl)pyridin-3-yl]-[5-(1H-pyrazol-4-yl)-[1,2,4]triazolo[1,5-a]pyrazin-8-yl]amine] | > 1000 | > 1000 | > 1000 |
| FC(F)(F)CN1CCN(c2ccc(Nc3ncc(-c4cn[nH]c4)n4ncnc34)cn2)CC1 [Compound 44, [5-(1H-Pyrazol-4-yl)-[1,2,4]triazolo[1,5-a]pyrazin-8-yl]-{6-[4-(2,2,2-trifluoroethyl)piperazin-1-yl]pyridin-3-yl}amine] | > 1000 | > 1000 | > 1000 |
| FC(F)(F)CN1CCN(c2ccc(Nc3ncc(-c4cn[nH]c4)n4ncnc34)cc2)CC1 [Compound 45] | > 1000 | > 1000 | > 1000 |
| c1nc2c(Nc3ccc(N4CCN(CC5CC5)CC4)cc3)ncc(-c3cn[nH]c3)n2n1 [Compound 46, {4-[4-(Cyclopropylmethyl)piperazin-1-yl]phenyl}-[5-(1H-pyrazol-4-yl)-[1,2,4]triazolo[1,5-a]pyrazin-8-yl]amine] | > 1000 | > 1000 | > 1000 |
| NC(=O)c1cc(-c2cnc(Nc3ccc(N4CCOCC4)nc3)c3ncnn23)cs1 [Compound 47, 4-[8-(6-[Morpholin-4-yl]pyridin-3-ylamino)-[1,2,4]triazolo[1,5-a]pyrazin-5-yl]thiophene-2-carboxylic acid amide] | 501 to 1000 | > 1000 | 101 to 500 |
| c1ccc2c(-c3cnc(Nc4ccc(N5CCOCC5)cc4)c4ncnn34)csc2c1 [Compound 48, (5-Benzo[b]thiophen-3-yl-[1,2,4]triazolo[1,5-a]pyrazin-8-yl)-(4-morpholin-4-ylphenyl)amine] | 101 to 500 | > 1000 | > 1000 |
| CC(C)N1CCN(c2ccc(Nc3ncc(-c4csc5ccccc45)n4ncnc34)cc2)CC1 [Compound 49] | > 1000 | > 1000 | > 1000 |
| c1nc2c(Nc3ccc(N4CCOCC4)cc3)ncc(-c3ccsc3)n2n1 [Compound 50, (4-Morpholin-4-ylphenyl)-(5-thiophen-3-yl-[1,2,4]triazolo[1,5-a]pyrazin-8-yl)amine] | 101 to 500 | > 1000 | > 1000 |
| CC(C)N1CCN(c2ccc(Nc3ncc(-c4ccsc4)n4ncnc34)cc2)CC1 [Compound 51, [4-(4-Isopropylpiperazin-1-yl)phenyl]-(5-thiophen-3-yl-[1,2,4]triazolo[1,5-a]pyrazin-8-yl)amine] | 501 to 1000 | > 1000 | > 1000 |
| CCc1[nH]ncc1-c1cnc(Nc2ccc(N3CCOCC3)cc2)c2ncnn12 [Compound 52, 5-(5-Ethyl-1H-pyrazol-4-yl)-N-(4-morpholinophenyl)-[1,2,4]triazolo[1,5-a]pyrazin-8-amine] | > 1000 | > 1000 | > 1000 |
| O=C1NS(=O)(=O)c2cc(-c3cnc(Nc4ccc(N5CCOCC5)cc4)c4ncnn34)ccc21 [Compound 53, 6-[8-(4-Morpholin-4-yl-phenylamino)-[1,2,4]triazolo[1,5-a]pyrazin-5-yl]-1,1-dioxo-1,2-dihydro-1λ^6-benzo[d]isothiazol-3-one] | 501 to 1000 | > 1000 | > 1000 |
| NC(=O)c1cc(-c2cnc(Nc3ccc(N4CCN(CC5CC5)CC4)nc3)c3ncnn23)cs1 [Compound 54, 4-{8-[6-(4-[Cyclopropylmethyl]piperazin-1-yl)-pyridin-3-ylamino]-[1,2,4]triazolo[1,5-a]pyrazin-5-yl}thiophene-2-carboxylic acid amide] | 101 to 500 | 501 to 1000 | 101 to 500 |
| NC(=O)c1cc(-c2cnc(Nc3ccc(N4CCN(CC(F)(F)F)CC4)nc3)c3ncnn23)cs1 [Compound 56, 4-(8-{6-[4-(2,2,2-Trifluoroethyl)piperazin-1-yl]-pyridin-3-ylamino}-[1,2,4]triazolo[1,5-a]pyrazin-5-yl)thiophene-2-carboxylic acid amide] | 501 to 1000 | > 1000 | 501 to 1000 |
| NC(=O)c1cc(-c2cnc(Nc3ccc(N4CCN(CC(F)(F)F)CC4)cc3)c3ncnn23)cs1 [Compound 57, 4-(8-{4-[4-(2,2,2-Trifluoroethyl)piperazin-1-yl]-phenylamino}-[1,2,4]triazolo[1,5-a]pyrazin-5-yl)thiophene-2-carboxylic acid amide] | 101 to 500 | > 1000 | 101 to 500 |
| NC(=O)c1cc(-c2cnc(Nc3ccc(N4CCN(CC5CC5)CC4)cc3)c3ncnn23)cs1 [Compound 58, 4-{8-[4-(4-(Cyclopropylmethyl)piperazin-1-yl)-phenylamino]-[1,2,4]triazolo[1,5-a]pyrazin-5-yl}thiophene-2-carboxylic acid amide] | 101 to 500 | > 1000 | 101 to 500 |
| c1nc2c(Nc3ccc(N4CCN(C5CC5)CC4)cc3)ncc(-c3cn[nH]c3)n2n1 [Compound 59, [4-(4-Cyclopropylpiperazin-1-yl)phenyl]-[5-(1H-pyrazol-4-yl)-[1,2,4]triazolo[1,5-a]pyrazin-8-yl]amine] | > 1000 | > 1000 | > 1000 |
| c1nc2c(Nc3ccc(N4CCN(C5CC5)CC4)nc3)ncc(-c3cn[nH]c3)n2n1 [Compound 60, [6-(4-Cyclopropylpiperazin-1-yl)pyridin-3-yl]-[5-(1H-pyrazol-4-yl)-[1,2,4]triazolo[1,5-a]pyrazin-8-yl]amine] | > 1000 | > 1000 | > 1000 |
| NC(=O)c1nc(-c2cnc(Nc3ccc(N4CCOCC4)cc3)c3ncnn23)cs1 [Compound 61, 4-[8-(4-Morpholin-4-ylphenylamino)-[1,2,4]triazolo[1,5-a]pyrazin-5-yl]thiazole-2-carboxylic acid amide] | 501 to 1000 | > 1000 | > 1000 |
| CC(C)N1CCN(c2ccc(Nc3ncc(-c4csc(C(N)=O)n4)n4ncnc34)cc2)CC1 [Compound 62, 4-{8-[4-(4-Isopropylpiperazin-1-yl)phenylamino]-[1,2,4]triazolo[1,5-a]pyrazin-5-yl}thiazole-2-carboxylic acid amide] | > 1000 | 501 to 1000 | 501 to 1000 |

From patent publication US20100298300A1, “TRIAZOLOPYRAZINE COMPOUNDS USEFUL FOR THE TREATMENT OF DEGENERATIVE & INFLAMMATORY DISEASES” (priority 2006, published 2010)
